What was measured:
Assay in all cases: Minimum inhibiting concentration (MIC), dilution series to DIN 58940 and DIN 58944
Format in all cases: cell-based
[1] = tested on: Malassezia furfur; parameters: unit not given here; settings: test solution 10% active substance
Experimental: (§1) The scale of an antimicrobial effect of surfactants can be established in a biological test system in which the minimum inhibiting concentration (MIC) is comparatively determined under laboratory conditions. In a dilution series of the test substance, the MIC is just that concentration at which no further growth is possible. The milder a surfactant, the higher the MIC value. The minimum inhibiting concentration of various surfactants was determined for three microorganisms occurring on the skin (Table 1). The surfactants are referred to by their names under the INCI nomenclature. [table] [table]

[2] = tested on: Propionibacterium acnes; parameters: Minimum inhibiting concentration: unit not given here; settings: for Minimum inhibiting concentration: test solution 10% active substance
Experimental: as §1

[3] = tested on: Staphylococcus epidermidis; parameters: Minimum inhibiting concentration: unit not given here; settings: for Minimum inhibiting concentration: test solution 10% active substance
Experimental: as §1

[4] = in words, versus the other surfactants of Table 1

| Substance | Minimum inhibiting concentration ([1]; pH 6.5, single surfactants) | Minimum inhibiting concentration ([1]; surfactant combinations) | Inhibition compared with the other surfactants [2, 4] | Minimum inhibiting concentration ([2]; pH 6.5, single surfactants) | Minimum inhibiting concentration ([2]; surfactant combinations) | Inhibition compared with the other surfactants [3, 4] | Minimum inhibiting concentration ([3]; pH 6.5, single surfactants) | Minimum inhibiting concentration ([3]; surfactant combinations) |
| --- | --- | --- | --- | --- | --- | --- | --- | --- |
| Laureth-7 Citrate | >0.5 | ≧1 | only inhibited at considerably higher concentrations | >0.5 | ≧1 | only inhibited at considerably higher concentrations | >0.5 | ≧1 |
| Sodium Laureth Sulfate | >0.5 | ≧1 |  | 0.05 | 0.05 |  | 0.5 | 0.5 |
| Cocamidopropyl betaine | >0.5 |  |  | 0.05 |  |  | 0.1 |  |
| Lauryl Glucoside | >0.5 |  |  | 0.05 |  |  | 0.5 |  |

— US20080070986A1, “ALKYLETHER CITRATES FOR SELECTIVELY CLEANING THE SKIN” (priority 2006, published 2008)
